From ChEMBL document CHEMBL6109037, “Understanding the mechanisms of antimicrobial resistance and potential therapeutic approaches against the Gram-negative pathogen Acinetobacter baumannii” (RSC Med Chem, 2024)
Values after ≈ are worked out from the molar mass of the structure shown.

Assays:
Acinetobacter baumannii [1] = assay: Antibacterial activity against Acinetobacter baumannii ATCC 17978 assessed as reduction in microbial growth incubated for 24 hrs Mueller-Hintorn broth dilution method; type: functional, organism-based; details: ATCC 17978, 24 h
Acinetobacter baumannii [2] = assay: Antibacterial activity against Acinetobacter baumannii; type: functional
Staphylococcus aureus [3] = assay: Antibacterial activity against Staphylococcus aureus; type: functional
Escherichia coli = assay: Antibacterial activity against Escherichia coli; type: functional
Acinetobacter baumannii [4] = assay: Antibacterial activity against multidrug-resistant Acinetobacter baumannii assessed as inhibition of bacterial growth incubated for 24 hrs by broth dilution assay; type: functional
Acinetobacter baumannii [5] = assay: Antibacterial activity against Acinetobacter baumannii assessed as zone of inhibition; type: functional
Acinetobacter baumannii [6] = assay: Antibacterial activity against Acinetobacter baumannii AB-5075 assessed as reduction in bacterial growth incubated for 18 to 24 hrs by broth micro-dilution assay; type: functional, organism-based
Acinetobacter baumannii [7] = assay: Antibacterial activity against Acinetobacter baumannii ATCC 17978 assessed as reduction in microbial growth; type: functional
Acinetobacter baumannii [8] = assay: Antibacterial activity against multidrug-resistant Acinetobacter baumannii ATCC 17978 assessed as reduction in bacterial growth incubated for 24 hrs by micro-broth dilution method; type: functional
Acinetobacter baumannii [9] = assay: Antibacterial activity against Acinetobacter baumannii ATCC 17978 assessed as bacterial eradication; type: functional
Acinetobacter baumannii [10] = assay: Antibacterial activity against Acinetobacter baumannii ATCC 17978 assessed as reduction in bacterial growth incubated for 24 hrs by micro-broth dilution method; type: functional
Acinetobacter baumannii [11] = assay: Antibacterial activity against Acinetobacter baumannii BAA-1605 assessed as reduction in microbial growth incubated for 24 hrs by broth micro-dilution method; type: functional
Acinetobacter baumannii [12] = assay: Antibacterial activity against Acinetobacter baumannii ATCC 17978 assessed as reduction in bacterial growth incubated for 24 hrs by broth dilution assay; type: functional
Acinetobacter baumannii [13] = assay: Antibacterial activity against Acinetobacter baumannii ATCC 17978 assessed as inhibition of bacterial growth incubated for 18 to 20 hrs by two fold serial dilution assay; type: functional; details: time 18-20 hrs
Klebsiella pneumoniae = assay: Antibacterial activity against Klebsiella pneumoniae; type: functional
Acinetobacter baumannii [14] = assay: Bactericidal activity against Acinetobacter baumannii; type: functional
Acinetobacter baumannii [15] = assay: Synergistic antibacterial activity against Acinetobacter baumannii clinical isolates assessed as inhibition of bacterial growth incubated for 18 to 24 hrs by Checkerboard assay relative to control; type: functional; design: scale not given: the % may be the effect or the level left; details: time 18-24 hrs
Acinetobacter baumannii [16] = assay: Synergistic antibacterial activity against Acinetobacter baumannii assessed as inhibition of bacterial growth incubated for 18 to 24 hrs by Checkerboard assay relative to control; type: functional; design: scale not given: the % may be the effect or the level left; details: time 18-24 hrs
DNA gyrase = DNA gyrase (Escherichia coli, UniProt P0AES4+P0AES6); assay: Inhibition of Escherichia coli DNA gyrase; type: protein-complex assay
Staphylococcus aureus [17] = assay: Antibacterial activity against Staphylococcus aureus assessed as reduction in microbial growth; type: functional

O=c1[nH]c(=O)n(C2OC(CO)c3ccccc32)cc1F (configuration not stated)
IC50 (Acinetobacter baumannii [1]): < 2 µM

Oc1cccc(/C=N/Nc2ccccn2)c1O
MIC (Acinetobacter baumannii [2]): 25 µg/mL (≈ 109 µM)

Cc1cc(=O)n(C)c2c3c4c(cc12)c(C)cc(=O)n4CCO3
MIC (Staphylococcus aureus [3]): 0.06 µg/mL (≈ 0.202 µM)
MIC (Acinetobacter baumannii [2]): > 32 µg/mL
MIC (Escherichia coli): > 32 µg/mL

THIMEROSAL
MIC (Acinetobacter baumannii [4]): 1 µg/mL

O=C(O)c1ccc(-n2cc(/C=N/Nc3ccccc3)c(-c3ccccc3)n2)cc1
inhibition zone (IZ) (Acinetobacter baumannii [5]): 28 mm

C[C@@H](O)[C@H]1C(=O)N2C(C(=O)O)=C(SCCNC=N)C[C@H]12 [IMIPENEM ANHYDROUS]
MIC (Acinetobacter baumannii [2]): > 8 µg/mL

COCCCNc1cc2nc(NC(=O)c3[nH]c(C)c(Cl)c3Cl)sc2cc1C(=O)O
MIC (Acinetobacter baumannii [2]): 4 µg/mL (≈ 8.75 µM)

CC[C@H]1OC(=O)[C@H](C)[C@@H](O[C@H]2C[C@@](C)(OC)[C@@H](O)[C@H](C)O2)[C@H](C)[C@@H](O[C@@H]2O[C@H](C)C[C@H](N(C)C)[C@H]2O)[C@](C)(O)C[C@@H](C)CN(C)[C@H](C)[C@@H](O)[C@]1(C)O [AZITHROMYCIN]
IC50 (Acinetobacter baumannii [6]): 1.1 µM

O=C(O)c1ccc(-n2cc(/C=N/Nc3ccc(F)cc3)c(-c3ccccc3)n2)cc1
MIC (Acinetobacter baumannii [2]): 8 µg/mL (≈ 20 µM)

O=[N+]([O-])c1ccc(O)c(/C=N/Nc2ccccn2)c1
MIC (Acinetobacter baumannii [2]): 25 µg/mL (≈ 96.8 µM)

CNc1nc(NCc2ccccc2)nc2ccc(C)cc12
MIC (Acinetobacter baumannii [7]): 1 µM

CSc1ccc2c(c1)N(CCC1CCCCN1C)c1ccccc1S2 (configuration not stated) [THIORIDAZINE]
MIC (Acinetobacter baumannii [8]): 100 µg/mL (≈ 270 µM)
MBEC (Acinetobacter baumannii [9]): 0.3 g/L
MIC (Acinetobacter baumannii [10]): 100 µg/mL (≈ 270 µM)

CO[C@@]12[C@H](COC(N)=O)C3=C(C(=O)C(C)=C(N)C3=O)N1C[C@@H]1N[C@@H]12 [MITOMYCIN]
MIC (Acinetobacter baumannii [11]): ≤ 8 µg/mL

Cc1c(Cl)sn(-c2ccc(Cl)cc2)c1=O
MIC (Acinetobacter baumannii [4]): 0.25 µg/mL (≈ 0.961 µM)

O=C(O)c1ccc(-c2nn(-c3ccc(C(=O)O)cc3)cc2/C=N/Nc2cccc(F)c2)cc1
MIC (Acinetobacter baumannii [2]): 1.56 µg/mL (≈ 3.51 µM)

CNCC1=CCCN(c2c(F)cn3c(=O)c(C(=O)O)cc(C4CC4)c3c2C)C1
MIC (Acinetobacter baumannii [12]): 0.16 µM (≈ 0.0617 µg/mL)

O=C(O)c1ccc(-n2cc(/C=N/Nc3ccc(Cl)cc3)c(-c3ccccc3)n2)cc1
MIC (Acinetobacter baumannii [2]): 4 µg/mL (≈ 9.6 µM)

Cc1c(N2C[C@@H](N)[C@@H](C)C2)c(F)cn2c(=O)c(C(=O)O)cc(C3CC3)c12
MIC (Acinetobacter baumannii [13]): 0.09 µg/mL (≈ 0.25 µM)

C[C@@H](O)[C@H]1C(=O)N2C(C(=O)O)=C(S[C@@H]3CN[C@H](C(=O)N(C)C)C3)[C@H](C)[C@H]12 [MEROPENEM]
MIC (Acinetobacter baumannii [2]): > 8 µg/mL

CN1CCN(CCCN2c3ccccc3Sc3ccc(C(F)(F)F)cc32)CC1 [TRIFLUOPERAZINE]
MIC (Acinetobacter baumannii [8]): 100 µg/mL (≈ 245 µM)
MBEC (Acinetobacter baumannii [9]): 0.3 g/L
MIC (Acinetobacter baumannii [10]): 100 µg/mL (≈ 245 µM)

Cc1c(CN(C)C(=O)/C=C/c2cnc3c(c2)CC(N)C(=O)N3)oc2ccccc12 (configuration not stated)
MIC (Klebsiella pneumoniae): 4 µg/mL (≈ 10.2 µM)
MIC (Acinetobacter baumannii [2]): 4 µg/mL (≈ 10.2 µM)
MIC (Escherichia coli): 4 µg/mL (≈ 10.2 µM)

H-RWKIFKKIPKFLHSAKKW-NH2
MIC (Acinetobacter baumannii [14]): 4 µg/mL

NNC(=O)CSc1ccc([N+](=O)[O-])cc1Cl
IC50 (Acinetobacter baumannii [1]): 11.7 µM

CN(C)c1cc(NC(=O)CNC(C)(C)C)c(O)c2c1C[C@H]1C[C@H]3[C@H](N(C)C)C(O)=C(C(N)=O)C(=O)[C@@]3(O)C(O)=C1C2=O [TIGECYCLINE]
IC50 (Acinetobacter baumannii [6]): 0.15 µM
MIC (Acinetobacter baumannii [2]): 0.5 µg/mL (≈ 0.854 µM)

Cc1cc(=O)n(C)c2c3c4c(cc12)c(C)cc(=O)n4C(CN)CO3 (configuration not stated)
MIC (Staphylococcus aureus [3]): 0.03 µg/mL (≈ 0.0922 µM)
MIC (Acinetobacter baumannii [2]): 2 µg/mL (≈ 6.15 µM)
MIC (Escherichia coli): 0.5 µg/mL (≈ 1.54 µM)

Cc1c(N2C[C@H](N)C3(CC3)C2)c(F)cn2c(=O)c(C(=O)O)cc(C3CC3)c12
MIC (Acinetobacter baumannii [13]): 0.19 µg/mL (≈ 0.512 µM)

NCC[C@H](O)C(=O)N[C@@H]1C[C@H](N)[C@@H](O[C@H]2O[C@H](CN)[C@@H](O)[C@H](O)[C@H]2O)[C@H](O)[C@H]1O[C@H]1O[C@H](CO)[C@@H](O)[C@H](N)[C@H]1O [AMIKACIN]
Activity (Acinetobacter baumannii [15]): 46.2%

CC(C)(C)n1cc(C(=O)O)c(=O)c2cc(F)c(Cl)nc21
IC50 (Acinetobacter baumannii [1]): < 2 µM

Brc1ccc2[nH]c(-c3ccncc3)cc2c1
MIC (Acinetobacter baumannii [13]): < 2 µg/mL

CN(C)[C@@H]1C(O)=C(C(N)=O)C(=O)[C@@]2(O)C(O)=C3C(=O)c4c(O)cccc4[C@@](C)(O)[C@H]3C[C@@H]12 [TETRACYCLINE]
IC50 (Acinetobacter baumannii [6]): 0.04 µM

CC(CN1c2ccccc2Sc2ccccc21)N(C)C (configuration not stated) [PROMETHAZINE]
MIC (Acinetobacter baumannii [8]): 100 µg/mL (≈ 352 µM)
MBEC (Acinetobacter baumannii [9]): 0.3 g/L
MIC (Acinetobacter baumannii [10]): 100 µg/mL (≈ 352 µM)

Cc1cc(-n2sc(Cl)c(C)c2=O)ccc1Cl
MIC (Acinetobacter baumannii [4]): 2 µg/mL (≈ 7.29 µM)

O=C(O)c1ccc(-c2nn(-c3ccc(C(=O)O)cc3)cc2/C=N/Nc2ccc(Cl)cc2)cc1
MIC (Acinetobacter baumannii [2]): 0.79 µg/mL (≈ 1.71 µM)

CN(C)CCCN1c2ccccc2Sc2ccc(Cl)cc21 [CHLORPROMAZINE]
MIC (Acinetobacter baumannii [8]): 100 µg/mL (≈ 314 µM)
MBEC (Acinetobacter baumannii [9]): 0.3 g/L
MIC (Acinetobacter baumannii [10]): 100 µg/mL (≈ 314 µM)

O=C1NC2(CCC3(CC2)OCCO3)NN1c1ccc(Cl)cc1
IC50 (Acinetobacter baumannii [1]): 10.8 µM

Cc1c(CN(C)C(=O)/C=C/c2cnc3c(c2)CCC(=O)N3)oc2ccccc12 [AFN-1252]
MIC (Escherichia coli): > 32 µg/mL

O=c1[nH]cc(F)c(=O)[nH]1 [FLUOROURACIL]
IC50 (Acinetobacter baumannii [6]): 1.8 µM

CC1(C)[C@H](C(=O)O)N2C(=O)C[C@H]2S1(=O)=O [SULBACTAM]
Activity (Acinetobacter baumannii [16]): ~70%

Cc1[nH]c(C(=O)Nc2nc3cc(NCc4ccccc4)c(C(=O)O)cc3s2)c(Cl)c1Cl
IC50 (DNA gyrase): < 0.071 µM
MIC (Acinetobacter baumannii [2]): 8 µg/mL (≈ 16.8 µM)

Cc1c(N2C[C@H](C)N[C@@H](C)C2)c(F)cn2c(=O)c(C(=O)O)cc(C3CC3)c12
MIC (Acinetobacter baumannii [12]): 0.31 µM (≈ 0.116 µg/mL)

Cn1cnc2c3c(Cl)c4ccccc4nc3ccc21
MBC (Staphylococcus aureus [17]): 2 µg/mL
